In US12241097B2, “Compositions and methods for adoptive cell therapy for cancer” (MEMORIAL SLOAN KETTERING CANCER CENTER, priority 2017, dated 2025):

Experiments:
PC9 cells = assay: PC9 viability, CellTitre-Glo, 48 hours; format: cell-based, human
Experimental: FIG. 14 provides exemplary data showing that Human T cells, but not cancer cells, are resistant to Erlotinib. (A) Human Jurkat T cells (red circle) and human non-small cell lung carcinoma cell lines PC9 (black square) and HCC827 (blue triangle) were treated with increasing concentrations of the receptor tyrosine kinase inhibitor Erlotinib. […] Cell viability was measured at 48 hours by CellTitre-Glo® luminescence.
FIG. 14 provides exemplary data showing that Human T cells, but not cancer cells, are resistant to Erlotinib. Human Jurkat T cells, primary T cells and human non-small cell lung carcinoma cell lines PC9 and HCC827 were treated with increasing concentrations of the receptor tyrosine kinase inhibitor Erlotinib. […] PC9 cells were incubated in the presence of Erlotinib, P-Erlotinib, or P-Erlotinib in the presence of purified CPG2. Cell viability was measured at 48 hours by CellTitre-Glo® luminescence.

[1] = tested on: lung adenocarcinoma cells (HCC827); assay: coculture of 293t^CPGTM cells with HCC827 plus erlotinib prodrug; format: cell-based; details: 120 hr, flow cytometry
Experimental: FIG. 15 provides exemplary data showing the pro-drug activity of 293T cells expressing transmembrane CPG2. GFP+293t^CPGTM cells were co-cultured with lung adenocarcinoma cells (HCC827) at various ratios (293t^CPGTM:HCC827) and the erlotinib prodrug (p-erlotinib) was added. (A) Cells were analyzed at 120 hour by flow cytometry and % GFP was calculated. (B) Ratio of 293t^CPGTM cells to HCC827 cells was calculated for each cell ratio.
The retroviral constructs encoding the anti-CD19 CAR and transmembrane CPG2 enzyme described above were transduced into 293T cells to test the conversion activity of transmembrane CPG2 for an Erlotinib prodrug. GFP+293t^CPGTM cells were co-cultured with lung adenocarcinoma cells (HCC827) at various ratios (293t^CPGTM:HCC827) and the erlotinib prodrug (p-erlotinib) was added. Cells were analyzed at 120 hr. by flow cytometry (FIG. 15A) and the percentage of GFP cells and the ratio of 293t^CPGTM cells to HCC827 cells was calculated for each cell ratio (FIG. 15B).

Jurkat T cells [2] = assay: Jurkat viability with prodrug and supernatant from CPG2-secreting HEK293T cells; format: cell-based, human; details: for cell viability with CPG2 supernatant: 48 hours, control media did not
Experimental: (§1) The in vitro cytotoxicity of AMS (structure 1c) and its prodrug variant (structure 1a) was tested against a variety of cell lines using a CellTitre Glo® assay (Promega, Madison, WI). […] Moreover, co-treatment with the prodrug and supernatant from CPG2-transfected HEK293T cells (see Example 3) led to cytotoxicity approaching that of the free drug (50 nM), consistent with CPG2-mediated cleavage of the prodrug to release the active parent drug. […] In contrast, AMS prodrug 1a was not activated by HEK293T cells expressing CPG intracellularly, which likely attributed to poor cell-penetrance of the prodrug due to the free bis-anionic gluatamate moiety.
Jurkat T cells were exposed to increasing concentrations of AMS (circle) or Pro-AMS with media alone (triangle) or supernatant from CPG2-secreting HEK293T cells (square). Cell viability was measured at 48 hours by CellTitre-Glo® luminescence assay.
Jurkat T cells were exposed to increasing concentrations of ZD2767P with media alone (triangle) or supernatant from CPG2-secreting HEK293T cells (square). Cell viability was measured at 48 hours by CellTitre-Glo® luminescence assay.

Jurkat (T cell) = assay: in vitro cytotoxicity, Jurkat; format: cell-based, human; details: T cell lines (Jurkat)
primary T-cells = assay: in vitro cytotoxicity, primary T cells; format: cell-based, human
HCC827 = HCC827 viability with Erlotinib; format: cell-based, human
Experimental: Human Jurkat T cells, primary T cells and human non-small cell lung carcinoma cell lines PC9 and HCC827 were treated with increasing concentrations of the receptor tyrosine kinase inhibitor Erlotinib. […] Cell viability was measured at 48 hours by CellTitre-Glo® luminescence.

[3] = tested on: HEK293T cells expressing CPG2; assay: viability of HEK293T cells expressing CPG2 variants exposed to prodrug; format: cell-based, human
Experimental: as §1
Expression of CPG2 without a signal peptide (CPG2nosigp) was employed as a control. HEK293t cells stably transfected with CPG2 variants were exposed to P-AMS ([…]) for 48 hours and analyzed by bright field microscopy (FIG. 9A). Cells were exposed to varying concentrations of P-AMS and cell viability was analyzed at 48 hr post treatment (FIG. 9B).
(§2) The HA epitope tag permitted staining of surface-level CPG2 in cells expressing either the secreted or transmembrane forms of the enzyme (FIG. 22D). […] Cell viability was measured at 48 hours by CellTitre-Glo® luminescence.

Jurkat T cells [4] = assay: Jurkat viability with P-AMS and purified recombinant CPG2; format: cell-based, human; details: Jurkat viability at 48 hours
Experimental: FIG. 4 provides exemplary data showing activation of P-AMS (see FIG. 2) by recombinant CPG2 expressed and purified from E. coli. (A) Human Jurkat T cells were incubated with or without P-AMS in the presence of increasing concentration of purified CPG2. Cell viability was measured at 48 hours by CellTitre-Glo luminescence. (B) Recombinant CPG2 was exposed to various concentrations of glutamated AMS prodrug. Following incubation at 37° C. (0.5, 1, 2, and 4 hr.), the reaction was combined with Amplex® Red (converts free glutamate to a fluorescent species) and fluorescent emission was analyzed using a fluorescence multiwell plate scanner.
The CPG2-pET151 vector was transformed into BL21 star E. coli cells and induced with IPTG. Bacteria were homogenized in a French Press and purified by affinity chromatography over Ni++ beads using standard protocols. Imidazole was exchanged via PBS dialysis and protein was purified via desalting spin columns. The expressed and purified CPG2 was assayed to confirm that the active enzyme was a potent converter of glutamated prodrugs. […] Pro-AMS was activated by recombinant CPG2 in vitro. Human Jurkat T cells were incubated with or without P-AMS in the presence of increasing concentration of purified CPG2. Cell viability of the Jurkat cells was measured at 48 hours by CellTitre-Glo® luminescence. […]

SET2 cells [5] = assay: SET2 viability with prodrug and supernatant from CPG2-secreting HEK293t cells; format: cell-based; details: comparable to AMS at around 100 nM
Experimental: SET2 cells were exposed to increasing concentrations of AMS (square) or glut-AMS with media alone (− control, triangle) or supernatant from CPG2-secreting HEK293t cells (circle). Cell viability was measured by CellTitre-Glo® luminescence assay.
as §2

HEK293T = assay: in vitro cytotoxicity, HEK293T; format: cell-based, human; details: HEK293-t; unit inferred; read-out: IC50 (cell selectivity data), ceph-AMS
Skov-3 = assay: cell viability, Skov-3; format: cell-based, human
[6] = tested on: myeloid leukemia cell line SET2; assay: cytotoxicity, SET2 (CellTitre Glo); format: cell-based; details: unit inferred, read-out: IC50 (cell selectivity data), ceph-AMS
SET2 cells [7] = assay: SET2 viability with ceph-AMS and Beta-lactamase supernatant; format: cell-based; details: comparable to AMS at around 100 nM

## C#Cc1cccc(N(Cc2ccc(NC(=O)N[C@@H](CCC(=O)O)C(=O)O)cc2)c2ncnc3cc(OCCOC)c(OCCOC)cc23)c1 [P-Erlotinib]
PC9 cells; PC9, 1 μM, 48 hours
  toxicity of prodrug alone: no toxicity
PC9 cells; PC9, with purified CPG2
  activity of prodrug cleaved by purified CPG2: comparable activity to the active drug
[1]
  killing after conversion by transmembrane CPG2: kills the target cancer cell

## O=C(O)CC[C@H](NC(=O)Oc1ccc(N(CCI)CCI)cc1)C(=O)O [ZD2767P, reference compound]
Jurkat T cells [2]
  cell viability with CPG2 supernatant: significant decrease in cell viability

## C#Cc1cccc(Nc2ncnc3cc(OCCOC)c(OCCOC)cc23)c1 [Erlotinib, reference compound]
Jurkat (T cell)
  response to increasing concentrations: resistance
Primary T-cells; primary T cells
  response to increasing concentrations: resistance
PC9 cells; PC9
  cell death with increasing concentrations: significant cell death
HCC827
  cell death with increasing concentrations: significant cell death

## NS(=O)(=O)OC[C@H]1O[C@@H](n2cnc3c(NC(=O)N[C@@H](CCC(=O)O)C(=O)O)ncnc32)[C@H](O)[C@@H]1O [P-AMS, ((9-((2R,3R,4S,5R)-3,4-dihydroxy-5-((sulfamoyloxy)methyl)tetrahydrofuran-2-yl)-9H-purin-6-yl)carbamoyl)-L-glutamic Acid]
Jurkat T cells [2]
  cell viability with CPG2 supernatant: significant decrease in cell viability
Jurkat T cells [2]; Homo sapiens, with CPG2 supernatant, read-out: IC50, co-treatment with supernatant from CPG2-transfected HEK293T cells
  IC50: 0.05 µM
[3]; cell-secreted and transmembrane CPG2, 48 hours, control construct did not
  cell death of HEK293T cells expressing CPG2: significant cell death
[3]; intracellular CPG
  activation by HEK293T cells expressing CPG intracellularly: not activated
Jurkat T cells [4]
  activation by recombinant CPG2: activated
SET2 cells [5]
  cell viability with CPG2 supernatant: significant decrease in cell viability

## Nc1ncnc2c1ncn2[C@@H]1O[C@H](COS(=O)(=O)NCC2=C(C(=O)O)N3C(=O)[C@@H](NC(=O)Cc4cccs4)[C@H]3SC2)[C@@H](O)[C@H]1O [ceph-AMS]
HEK293T
  IC50: 2 µM
Primary T-cells; Human T cell, unit inferred, read-out: IC50 (cell selectivity data), ceph-AMS
  IC50: > 1.25 µM
Skov-3
  Selective Index: 3.6
Skov-3; unit inferred, read-out: IC50 (cell selectivity data), ceph-AMS
  IC50: > 1.25 µM
[6]
  IC50: ~2.2 µM
SET2 cells [7]
  cell viability with Beta-lactamase supernatant: significant decrease in cell viability
